In publication PMC6273765, “Synthesis and Biological Evaluation of Novel Aromatic Imide-Polyamine Conjugates” (Molecules, 2016):
Counter-ions that a name gives are not always drawn.

Key:
[1] = test system: QSG-7701 cells; assay: MTT cytotoxicity, QSG-7701 normal hepatocyte; assay type: cell-based; conditions: normal hepatocyte cell line
[2] = test system: K562 cells; assay: MTT cytotoxicity, K562; assay type: cell-based, human; conditions: mean of three experiments
[3] = test system: HCT-116 cells; assay: MTT cytotoxicity, HCT-116; assay type: cell-based, human; conditions: mean of three experiments
[4] = test system: HepG2 cells; assay: MTT cytotoxicity, HepG2; assay type: cell-based, human; conditions: mean of three experiments
[5] = test system: MDA-MB-231 cells; assay: MTT cytotoxicity, MDA-MB-231; assay type: cell-based; conditions: Homo sapiens, 48 h, mean of three experiments
[6] = test system: H22 cells lung metastasis; assay: H22 lung metastasis model; assay type: in vivo, Kunming mice; conditions: 11e 1 mg/kg; for Metastatic Focus (No.) / Inhibition Rate (lung metastasis): amonafide 5 mg/kg i.v., 7 consecutive days; for Metastatic Focus (No.): control 110.04 ± 15.38; for No. Dead: amonafide 5 mg/kg, lung metastasis model; for Inhibition Rate (lung metastasis): vs normal saline
Source text: Metastasis is the process by which tumors spread from the primary organ in which they arise to other sites in the body. In most cases, tumors that stay confined to one organ will not be fatal, tumors that have spread to other organs have a greater potential for causing harm. To test whether 11e was effective against an established lung metastasis, we injected H22 cells intravenously into 24 Kunming mice (5 × 10^6 cells each mouse). To ensure that all mice bore actively growing lung tumors before the drug treatment, pulmonary cancer was allowed to develop for 10 days.
H22 cells (5 × 10^6 cells per mouse) for Kunming mice were injected intravenous (i.v.) through the tail vein for tumor passive metastasis. To ensure all mice bore actively growing lung tumors before the drug treatment, pulmonary metastasis was allowed to develop for 10 days. […] On day 18, mice were killed by cervical vertebra dislocation, and lungs were removed and weighed, and then fixed in Bouin’s fluid. After the lungs were fixed, lung metastases nodus was numbered.

[7] = test system: HepG2 cells; assay: Mitochondrial membrane potential, Rh123 (HCS); assay type: cell-based, human; conditions: HepG2, 3, 6, 12 μM, 48 h
Source text: (§1) To appraise if novel naphthalimide-polyamine conjugates induce cell apoptosis, morphological study was applied after HepG2 cells were stained with AO/EB. […] To furnish more credible information about the apoptosis of HepG2 cells induced by compound 11e, we used the high content screening (HCS) technique to detect related apoptosis indicators. Mitochondria are vital cell organelles in the process of transmitting apoptosis signals, whereas the mitochondrial membrane potential (MMP) is a critical parameter related to mitochondrial function in cells. As a MMP specific cationic fluorescent dye, Rh123 is used to measure the change of MMP, which accumulates in healthy mitochondria with intact membrane potential and is absent in the depolarized mitochondria. Lysosomes, as cellular targets in cancer therapy, participate in various cell death profiles such as apoptosis and senescence. Thus, the lysosomal mass/pH (Lys/pH) variation was detected by a basic fluorescent probe Lyso-Tracker Red which selectively accumulates in acidic lysosomes during cytotoxicity occurs.
(§2) HepG2 cells were seeded in 96 well plates (6 × 10^3 cells/well), cultured for 24 h to obtain a confluent monolayer, and then treated with various concentrations of tested compounds for 48 h. […] Images were acquired on the ArrayScan HCS reader using the Target Activation BioApplication software.

[8] = test system: HepG2 cells; assay: Apoptosis by AO/EB staining (HCS); assay type: cell-based, human; conditions: HepG2, 3, 6, 12 μM, 48 h
Source text: as §1, with “Lysosomes, as cellular targets in cancer therapy, participate in various cell death profiles such as apoptosis and senescence.” left out
as §2, with “monolayer” for “monolayer,”, “obtained” for “acquired”, “High Content Screening (HCS, ArrayScan, Thermo Scientific)” for “ArrayScan HCS”, “software (Thermo Scientific).” for “software.”

[9] = test system: HepG2 cells; assay: ROS generation, DCFH-DA (HCS); assay type: cell-based, human; conditions: HepG2, 3, 6, 12 μM, 48 h
Description: It is known that polyamine conjugates may produce reactive oxygen species (ROS). The elevated ROS could bring corresponding influences on MMP loss and LYS/pH destabilization, which generally activates the cell death. Therefore, the ROS generation was detected by the DCFH-DA (2′,7′-dichlorodihydrofluorescein diacetate) experiment.
HepG2 cells were seeded in 96 well plates (6 × 10^3 cells/well), cultured for 24 h to obtain a confluent monolayer, and then treated with various concentrations of tested compounds for 48 h. Cells were incubated with Rh123 (0.25 nM), or DCFH-DA (10 μM), or Lyso-Tracker Red (50 nM ) in the dark at 37 °C for 30 min. for the measurement of mitochondrial membrane potential (MMP), or reactive oxygen species (ROS) or lysosomal mass/pH staining, respectively. After being washed with PBS to remove excess dyes, cells were further stained with the nuclear dye Hoechst 33,342 (10 μM) in the dark at 37 °C for 20 min. Images were acquired on the ArrayScan HCS reader using the Target Activation BioApplication software.

[10] = test system: H22 cells; assay: Survival time in mice bearing H22 cells (ascites); assay type: in vivo, Kunming mice; conditions: 11e 1 mg/kg, amonafide 5 mg/kg i.v.; for median survival time (MST): 7 consecutive days, control 12.75 ± 2.5 days
Description: Impacts of 11e on survival time in H22-bearing mice were evaluated by measuring the extension of the lifespan. The median survival time (MST) in control mice was (12.75 ± 2.5) days.
For calculation of the survival time, 30 male Kunming mice were inoculated via intraperitoneal (i.p.) injection with 1 × 10^6 H22 cells/mouse on day 0 and were randomly divided into three groups. […] The median survival time (MST) for each group was observed, and the antitumor activity of the drug was evaluated by measuring the increase of the lifespan. The extended lifespan rate was calculated as follows: extend rate (%) = (MST treated group/MST control group) × 100.

[11] = test system: HepG2 cells; assay: Lysosomal mass/pH, Lyso-Tracker Red (HCS); assay type: cell-based, human; conditions: HepG2, 3, 6, 12 μM, 48 h
Source text: as §1, §2

[12] = test system: H22 mouse hepatocellular carcinoma; assay: Subcutaneous H22 solid tumor growth inhibition; assay type: in vivo, Kunming mice; conditions: 11e 1 mg/kg, amonafide 5 mg/kg; for Inhibition Rate (tumor weight) / Tumor Weight: caudal vein, 7 consecutive days; for Inhibition Rate (tumor weight): vs normal saline; for Tumor Weight: control 2.17 ± 0.22 g; for No. Dead: solid tumor model
Source text: However, few in vivo studies provided limited messages for rational design of the conjugates in comparison to the plentiful in vitro data. Indeed, there are significant discrepancies between in vitro and in vivo experiments in many cases. In vivo trials, based on preliminary in vitro screens, provide more valuable messages for further drug development. To further evaluate the antitumor activity of 11e in vivo, we chose three H22 (mice hepatoma cell line) tumor transplant models: solid tumor (tumor growth inhibition evaluation), ascites tumor (live time evaluation), and pulmonary metastasis tumor (tumor metastasis evaluation).
All animal care and experimentation conformed to the Guide for the Care and Use of Laboratory Animals published by Henan University (HUSOM2016-162). For solid tumor development, 30 male Kunming mice (Laboratory Animal Center of Henan, Zhengzhou, China) aged 5 weeks (weighing 18–22 g) were injected subcutaneously with 2 × 10^6 H22 cells. […] On day 16, the mice were killed by cervical vertebra dislocation, and solid tumors were removed and weighed. The inhibitory rate was calculated as follows: inhibitory rate (%) = [(A − B)/A] × 100, where A was the mean tumor weight of the control group and B was that of the drug treated or positive group.

[13] = Systemic toxicity (body weight, organ index); conditions: 11e 1 mg/kg, amonafide 5 mg/kg i.v.
Description: However, there are few reports about the systemic toxicology of naphthalimide-polyamine conjugates to support the above hypothesis. […] At the same time, the body weight was monitored to detect the dose-limited toxicity. On day 8, these mice were killed by cervical vertebra, and the organs and tissues, including samples of heart, liver, lung, kidney, spleen and thymus, were taken for the inspection of systemic toxicity.
Mice (8 per group) received 11e (1 mg/kg) and amonfide (5 mg/kg, i.v.) for 7 consecutive days and then were sacrificed. Heart, liver, kidney, lung and spleen were removed and weighed. The organ index was investigated for systemic toxicity evaluation: organ index (%) = (organ weight/body weight) × 100.

Molecule	IC50 ([1]; QSG7701, 48 h)	IC50 ([2]; Homo sapiens, K562, 48 h)	IC50 ([3]; Homo sapiens, HCT-116, 48 h)	IC50 ([4]; Homo sapiens, HepG2, 48 h)	IC50 [5]	other results
2-{3-[4-(3-Aminopropylamino)butylamino]butyl}-6-acetyl-1H-benz[de]isoquinoline-1,3(2H)-dione trihydrochloride [5e]	–	–	–	–	–	IC50 ([1]; 48 h): 27.7 µM; IC50 ([2]; 48 h): 12.2 µM; IC50 ([3]; 48 h): 16.9 µM; IC50 ([4]; 48 h): 22.1 µM
CC(=O)c1ccc2c3c(cccc13)C(=O)N(CCCCNCCCCN)C2=O [5d, 2-[(2-Dimethylamino)ethyl-[4-(4-aminobutylamino)butyl]-6-acetyl-1H-benz[de]isoquinoline-1,3(2H)-dione dihydrochloride]	23.2 µM	31.1 µM	22.9 µM	23.9 µM	–	–
CC(=O)c1ccc2c3c(cccc13)C(=O)N(CCCCNCCCCNCCCCN)C2=O [5f, 2-{4-[4-(4-Aminobutylamino)butylamino]butyl}-6-acetyl-1H-benz[de]isoquinoline-1,3(2H)-dione trihydrochloride]	21.2 µM	18.8 µM	19.6 µM	30.7 µM	–	–
NCCCNCC(=O)NCCCN1C(=O)c2cccc3cccc(c23)C1=O [11a, 2-(3-Aminopropylamino)-N-(3-(1,3-dioxo-1H-benzo[de]isoquinolin-2(3H)-yl)propyl)acetamide dihydrochloride]	39.2 µM	33.2 µM	39.9 µM	53.5 µM	32.4 µM	–
NCCCNCCCNCC(=O)NCCCN1C(=O)c2cccc3cccc(c23)C1=O [11b, 2-(3-(3-Aminopropylamino)propylamino)-N-(3-(1,3-dioxo-1H-benzo[de]isoquinolin-2(3H)-yl)propyl)acetamide trihydrochloride]	42.9 µM	28 µM	> 50 µM	> 50 µM	16.8 µM	–
Cl.Cl.Cl.Cl.NCCCNCCCCNCCCNCC(=O)NCCCN1C(=O)c2cccc3cccc(c23)C1=O [11e, 2-(3-(4-(3-Aminopropylamino)butylamino)propylamino)-N-(3-(1,3-dioxo-1H-benzo[de]isoquinolin-2(3H)-yl)propyl)acetamide tetrahydrochloride]	53.9 µM	2.86 µM	5.12 µM	6.33 µM	12 µM	Metastatic Focus (No.) [6]: 40.25 ± 8.15; No. Dead [6]: 0/8; green fluorescence of Rh123 (MMP) [7]: significantly decreased in a dose-dependent manner; apoptosis induction (AO/EB) [8]: obvious apoptosis; ROS generation (DCFH-DA) [9]: apparently increased ROS; life span increase vs control group [10]: 2.41 fold; median survival time (MST) [10]: 30.75 ± 4.4 days; Lyso-Tracker Red fluorescence (lysosomal mass/pH) [11]: remarkable accruement of red fluorescence; Inhibition Rate (tumor weight) [12]: 70.92%; Tumor Weight [12]: 0.63 ± 0.21 g; No. Dead [12]: 0/9
NCCCCNCCCCNCCCCNCC(=O)NCCCN1C(=O)c2cccc3cccc(c23)C1=O [11f, 2-(4-(4-(4-Aminobutylamino)butylamino)butylamino)-N-(3-(1,3-dioxo-1H-benzo[de]isoquinolin-2(3H)-yl)propyl)acetamide tetrahydrochloride]	50.6 µM	26.2 µM	> 50 µM	> 50 µM	57.1 µM	–
NCCCNCCCNCCCN1C(=O)c2ccc(-c3ccccc3)cc2C1=O [17b, 5-Phenyl-2-{3-[3-(3-aminopropylamino)-propylamino]propyl}isoindoline-1,3-dione trihydrochloride]	> 50 µM	28.2 µM	> 50 µM	> 50 µM	–	–
NCCCNCCCCNCCCN1C(=O)c2ccc(-c3ccccc3)cc2C1=O [17c, 5-Phenyl-2-{3-[4-(3-aminopropylamino)-amino]propyl}isoindoline-1,3-dione trihydrochloride]	> 50 µM	> 50 µM	> 50 µM	> 50 µM	–	–
NCCCCNCCCCNCCCCN1C(=O)c2ccc(-c3ccccc3)cc2C1=O [17d, 5-Phenyl-2-{4-[4-(4-aminobutylamino)-butylamino]butyl}isoindoline-1,3-dione trihydrochloride]	> 50 µM	> 50 µM	> 50 µM	> 50 µM	–	–
CN(C)CCN1C(=O)c2cccc3cc(N)cc(c23)C1=O [Amonafide, amonafide, reference compound]	55.5 µM	6.31 µM	15.4 µM	6.57 µM	7.98 µM	Inhibition Rate (lung metastasis) [6]: 40.70%; Inhibition Rate (lung metastasis) ([6]; listed as amonafide): 40.7%; Metastatic Focus (No.) [6]: 65.25 ± 13.82; No. Dead [6]: 0/8; liver and spleen index ([13]; 7 days, compared to controls): obviously decreased; body weight change ([13]; tumor-bearing mice, 7 consecutive days): some degree of weight loss; life span increase vs control group [10]: 1.53 fold; median survival time (MST) [10]: 19.5 ± 3.6 days; Inhibition Rate (tumor weight) [12]: 43.79%; Tumor Weight [12]: 1.22 ± 0.13 g; No. Dead [12]: 0/9
